Data published in patent US7790364B2, “Compositions and methods for high throughput screening of pharmacological chaperones” (The Board of Trustees of the Leland Stanford Junior …, priority 2006, dated 2010).

Key:
Format in all cases: cell-based
[1] = molecular target: T1, 4S-ΔF508 CFTR (Homo sapiens, UniProt P13569, DEL508-508/INS895[…]); test: RNAase S complementation screening assay on 4S-ΔF508 CFTR expressing CHO cells; conditions: LOPAC1280 library screen
T1 construct: antibodies against the CFTR C-terminus to test for complete open reading frame; 4 x S-tag (KETAAAKFERQHMDS) with GGGG spacers, in the 4th extracellular loop; expressed in transfected cells
T1 sequence (P13569 with tags, fused parts or gaps DEL508-508/INS895[withheld]): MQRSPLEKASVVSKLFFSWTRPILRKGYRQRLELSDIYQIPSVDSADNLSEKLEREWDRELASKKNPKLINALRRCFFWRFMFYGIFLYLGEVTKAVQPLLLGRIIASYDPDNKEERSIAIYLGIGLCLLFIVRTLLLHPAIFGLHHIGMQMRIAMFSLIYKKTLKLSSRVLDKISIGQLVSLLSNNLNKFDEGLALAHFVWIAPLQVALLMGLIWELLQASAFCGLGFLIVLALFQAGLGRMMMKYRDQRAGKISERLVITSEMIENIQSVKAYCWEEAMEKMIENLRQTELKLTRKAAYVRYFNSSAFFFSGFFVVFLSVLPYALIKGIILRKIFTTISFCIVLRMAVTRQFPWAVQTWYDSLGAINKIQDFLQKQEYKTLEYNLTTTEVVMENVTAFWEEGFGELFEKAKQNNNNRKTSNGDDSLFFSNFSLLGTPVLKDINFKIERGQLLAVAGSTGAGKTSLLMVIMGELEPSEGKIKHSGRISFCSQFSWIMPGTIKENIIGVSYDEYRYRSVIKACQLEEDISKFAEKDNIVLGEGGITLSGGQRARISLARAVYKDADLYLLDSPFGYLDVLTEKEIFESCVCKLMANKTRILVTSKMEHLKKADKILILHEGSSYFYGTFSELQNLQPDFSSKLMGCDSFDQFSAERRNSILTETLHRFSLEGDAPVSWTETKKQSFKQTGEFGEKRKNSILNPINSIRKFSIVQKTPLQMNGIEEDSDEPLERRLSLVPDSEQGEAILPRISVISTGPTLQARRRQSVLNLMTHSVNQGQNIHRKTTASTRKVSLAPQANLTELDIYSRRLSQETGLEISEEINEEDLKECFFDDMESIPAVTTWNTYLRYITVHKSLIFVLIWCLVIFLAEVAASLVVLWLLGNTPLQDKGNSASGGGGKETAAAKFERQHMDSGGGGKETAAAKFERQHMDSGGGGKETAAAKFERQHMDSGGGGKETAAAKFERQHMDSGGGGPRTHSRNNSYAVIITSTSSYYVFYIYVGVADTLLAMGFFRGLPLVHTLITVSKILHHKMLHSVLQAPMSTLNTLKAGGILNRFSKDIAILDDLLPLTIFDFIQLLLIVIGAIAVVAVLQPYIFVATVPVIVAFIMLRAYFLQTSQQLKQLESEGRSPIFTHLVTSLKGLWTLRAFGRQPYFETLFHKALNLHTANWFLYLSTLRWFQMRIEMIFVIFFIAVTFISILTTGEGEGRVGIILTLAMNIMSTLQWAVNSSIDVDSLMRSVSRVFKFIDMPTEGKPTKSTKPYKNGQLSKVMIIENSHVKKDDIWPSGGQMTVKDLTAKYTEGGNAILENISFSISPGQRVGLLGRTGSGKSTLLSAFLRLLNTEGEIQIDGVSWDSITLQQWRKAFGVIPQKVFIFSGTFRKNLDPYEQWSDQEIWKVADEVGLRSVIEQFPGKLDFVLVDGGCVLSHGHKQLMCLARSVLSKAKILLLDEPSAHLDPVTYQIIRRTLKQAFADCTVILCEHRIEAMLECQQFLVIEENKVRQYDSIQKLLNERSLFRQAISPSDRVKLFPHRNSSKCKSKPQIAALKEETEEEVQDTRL
Description: Optimize conditions for homogeneous cell-based assay for ΔF508-CFTR rescue. Surface detection of S-protein tagged CFTR used reconstitution of RNAase S activity and detection with the fluorogenic probe 6-F-dArUdAdA-6-TMR.
Screening was carried out on a customized apparatus (SAGIAN, Beckman) containing a 3-m rail Optimized Robot for Chemical Analysis that integrates the following robot-accessible instruments on a 4×2-m optical table: (a) SAGIAN 180 CO2 incubator, which holds 180 standard microplates in a storage carousel; (b) Elx405-Select plate washer with valve option and vacuum-sensing/waste alert for complex automated wash cycles; (c) SAGIAN MPS-8 CS incubator (holds eight standard microplates at 4-37±1° C.); […] SAGIAN shaker (six plate positions, frequency range 40-1100 rpm with variable amplitude); (e) Biomek 2000 liquid handling work station (installed with four positions to hold tip boxes with automatic air locks and six positions for microplates and liquid reservoirs, and MP 20 and MP 200 8-channel tip tools for liquid transfer); (f) SAGIAN carousel (holding 40 pipette tip boxes and 90 microplates); (g) SAGIAN bar code reader; (h) SAGIAN microplate lidding station with automatic vacuum control of six suction cups; (i) two FluoStar fluorescence plate readers (BMG Lab Technologies), each equipped with two-syringe pumps.
Data collection and analysis. […]

[2] = molecular target: T1, 4S-ΔF508 CFTR; test: FACS assay measuring S-tag epitopes at the cell surface with a polyclonal antibody; conditions: for surface expression of CFTR (FACS): different concentrations, 1 or 2 days, with or without induction of 4S tag delta F508 expression, compared with 28° C. positive control
Text: The library was screened against 4S-ΔF508 CFTR expressing CHO cells using the assay described in Example 2 above. Each of these compounds was retested using an FACS assay to measure S-tag epitopes at the cell surface with a polyclonal antibody, as shown in FIG. 8.

[3] = molecular target: T1, 4S-ΔF508 CFTR; test: Immunofluorescence labeling using polyclonal S-tag antibody; conditions: varying doses, FIG. 11
[4] = molecular target: T1, 4S-ΔF508 CFTR; test: Western blotting of CFTR expression in cells exposed to compound; conditions: FIG. 10

Structure (SMILES): O=C(/C=C/c1ccc(O)cc1)c1ccc(O)cc1O [Compound 6, 4,2′,4′-trihydroxychalcone]
- activity in the assays of the invention [1]: active
- activity in the rescreening assays ([2]; FACS, S-tag epitopes at the cell surface): active
- surface expression of CFTR (FACS) [2]: significant, dose dependent increase
- surface expression of CFTR (FACS) ([2]; listed as isoliquiritigenin): significant and dose-dependent upregulation
- expression by immunofluorescence labeling using polyclonal S-tag antibody [3]: increased expression
- expression of the protein assessed by western blotting [4]: increased expression
